The source made the active and inactive calls.
Columns and labels:
[1] = target: T1, Short transient receptor potential channel 4 (Mus musculus, UniProt Q9QUQ5); experiment: mouse TRPC4 channel activators, dose response, cell-based, HEK293 TRPC4/mu-opioid, Fluo-4 calcium (AID 434937); assay type: functional
T1 sequence (Q9QUQ5 whole entry): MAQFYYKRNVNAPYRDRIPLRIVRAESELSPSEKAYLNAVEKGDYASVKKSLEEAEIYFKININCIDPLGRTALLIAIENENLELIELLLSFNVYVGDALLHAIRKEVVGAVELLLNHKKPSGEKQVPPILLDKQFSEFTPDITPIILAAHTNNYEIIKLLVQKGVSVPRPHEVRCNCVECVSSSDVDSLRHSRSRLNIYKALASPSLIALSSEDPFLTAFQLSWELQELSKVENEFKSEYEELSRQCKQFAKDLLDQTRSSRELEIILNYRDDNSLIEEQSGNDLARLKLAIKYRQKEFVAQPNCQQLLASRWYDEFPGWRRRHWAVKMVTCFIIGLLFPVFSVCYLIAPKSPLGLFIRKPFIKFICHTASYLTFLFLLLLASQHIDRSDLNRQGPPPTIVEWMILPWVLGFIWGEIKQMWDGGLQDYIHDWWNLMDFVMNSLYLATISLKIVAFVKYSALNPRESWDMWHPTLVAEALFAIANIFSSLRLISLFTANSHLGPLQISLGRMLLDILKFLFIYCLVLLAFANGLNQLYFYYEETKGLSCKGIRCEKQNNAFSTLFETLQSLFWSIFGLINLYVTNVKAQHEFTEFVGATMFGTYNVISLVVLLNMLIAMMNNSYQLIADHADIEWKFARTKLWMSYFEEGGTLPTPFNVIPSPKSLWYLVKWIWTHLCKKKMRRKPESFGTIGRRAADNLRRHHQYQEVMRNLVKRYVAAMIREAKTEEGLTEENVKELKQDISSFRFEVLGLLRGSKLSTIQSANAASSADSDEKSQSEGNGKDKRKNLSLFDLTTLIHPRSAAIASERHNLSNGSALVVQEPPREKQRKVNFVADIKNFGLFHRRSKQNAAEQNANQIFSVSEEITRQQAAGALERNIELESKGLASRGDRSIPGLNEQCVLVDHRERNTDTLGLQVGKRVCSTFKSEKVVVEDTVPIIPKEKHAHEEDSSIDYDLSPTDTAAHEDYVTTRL

[2] = growth suppression of PTEN-null colon cells, dose response, cell-based, HCT116 PTEN knockout (AID 1047); assay type: functional;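 further: HCT116 colon tumor cells with PTEN knocked out; cells exposed to compound for 60 hours before readout; potency for loss of cell viability measured by luminescence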
[3] = inhibitors of intracellular T. cruzi replication, confirmation, NIH3T3 host cells, beta-gal luminescence (AID 2044); assay type: functional, cell-based;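 further: intracellular parasites grown in NIH/3T3 mouse fibroblasts as host cells; luminescent beta-galactosidase reporter signal from transgenic T. cruzi replicating inside host cells; inhibitors lower the luminescence signal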
[4] = cytotoxicity in HEK-293T cells, dose response, cytotoxicity control for TCR NF-kB inhibitor project, luminescence, T-cell screen hits (AID 489026); assay type: functional, cell-based;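 further: cells exposed to compound about 14 hours before the viability readout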
[5] = cytotoxicity toward NIH3T3 fibroblasts, dose response, counter-screen, cell-based, ATP luminescence, mouse fibroblasts (AID 2010); assay type: functional;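 further: cells exposed to compound for about 90 hours before reading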
[6] = Luminescence Cell-Based Dose Response HTS to Identify Inhibitors of 5'UTR Stem-Loop Driven Prion Protein mRNA Translation in H4 Neuroglioblastoma Cells. [Related pubchem assays: 1827 (Project Summary), 1813 (Primary HTS)]; assay type: functional
[7] = growth suppression of beta-catenin-knockout colon cells, dose response, cell-based, HCT116, human colon tumor (AID 1045); assay type: functional;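 further: HCT116 colon tumor cells with beta catenin knocked out; cells exposed to compound for 60 hours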
[8] = inhibitors of firefly luciferase expression or activity, dose response, H4 neuroglioma cells, luminescence (AID 1990); assay type: functional, cell-based
[9] = inhibitors of SNCA 5'UTR-driven reporter translation, confirmation, H4 neuroglioma cells, luminescence (AID 1988); assay type: functional, cell-based
[10] = target: T2, Heat shock factor protein 1 (Mus musculus, UniProt P38532); experiment: inhibition of MG132-induced HSE-luciferase signal, confirmation, cell-based, NIH3T3, luminescence, dose retest (AID 2382); assay type: functional;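 further: NIH3T3 fibroblasts with HSF1-driven luciferase reporter stressed by proteasome inhibitor MG132; luminescence from HSF1-driven luciferase expression after 8 hours of MG132 stress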
T2 sequence (P38532 whole entry): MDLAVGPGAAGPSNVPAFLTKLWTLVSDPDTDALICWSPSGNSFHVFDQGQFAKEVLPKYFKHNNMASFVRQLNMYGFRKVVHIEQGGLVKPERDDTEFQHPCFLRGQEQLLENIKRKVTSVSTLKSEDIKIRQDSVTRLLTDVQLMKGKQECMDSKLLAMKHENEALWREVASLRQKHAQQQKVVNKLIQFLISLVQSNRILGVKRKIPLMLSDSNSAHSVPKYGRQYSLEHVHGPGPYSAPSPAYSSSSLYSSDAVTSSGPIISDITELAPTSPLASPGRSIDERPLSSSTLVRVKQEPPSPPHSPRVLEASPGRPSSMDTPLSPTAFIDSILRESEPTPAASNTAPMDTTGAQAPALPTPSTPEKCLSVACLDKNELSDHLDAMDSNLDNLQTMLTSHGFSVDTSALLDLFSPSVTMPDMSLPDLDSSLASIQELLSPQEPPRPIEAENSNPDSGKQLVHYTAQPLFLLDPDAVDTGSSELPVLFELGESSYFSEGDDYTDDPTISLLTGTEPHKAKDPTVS

Genome polyprotein = Genome polyprotein (dengue virus type 2, UniProt P29990); experiment: Dengue-2 NS5 methyltransferase inhibitors, primary screen, biochemical, confirmation dose response (AID 588689); assay type: functional
[11] = target: T3, Corticotropin-releasing factor receptor 2/Corticotropin-releasing factor-binding protein (Homo sapiens, UniProt P24387+Q13324); experiment: activators of CRF receptor 2 with binding protein – uHTS hits, confirmation (AID 602473); assay type: functional; settings: read-out: EC50_Mean
T3 sequence (Q13324 whole entry): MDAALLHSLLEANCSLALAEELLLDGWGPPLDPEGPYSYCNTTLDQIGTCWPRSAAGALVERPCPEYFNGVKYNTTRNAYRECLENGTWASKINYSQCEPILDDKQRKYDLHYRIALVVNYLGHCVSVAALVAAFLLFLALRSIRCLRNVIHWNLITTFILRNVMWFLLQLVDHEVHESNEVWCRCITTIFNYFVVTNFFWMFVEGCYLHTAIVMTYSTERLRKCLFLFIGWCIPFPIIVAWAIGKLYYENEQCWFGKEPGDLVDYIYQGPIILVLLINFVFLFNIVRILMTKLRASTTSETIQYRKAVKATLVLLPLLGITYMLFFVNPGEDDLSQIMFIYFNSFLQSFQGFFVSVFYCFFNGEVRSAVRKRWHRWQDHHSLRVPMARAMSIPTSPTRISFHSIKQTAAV
T3 sequence (P24387 whole entry): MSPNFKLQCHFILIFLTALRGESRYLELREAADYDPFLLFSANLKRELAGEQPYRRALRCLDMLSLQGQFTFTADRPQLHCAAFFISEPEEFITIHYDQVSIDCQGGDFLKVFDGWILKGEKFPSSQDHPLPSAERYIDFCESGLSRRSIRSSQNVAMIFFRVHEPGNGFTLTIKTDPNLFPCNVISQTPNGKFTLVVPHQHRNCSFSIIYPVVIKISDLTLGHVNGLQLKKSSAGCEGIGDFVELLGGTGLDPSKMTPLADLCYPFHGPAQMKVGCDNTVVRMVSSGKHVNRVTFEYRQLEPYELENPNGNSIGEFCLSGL

[12] = target: T3, Corticotropin-releasing factor receptor 2/Corticotropin-releasing factor-binding protein; experiment: Dose Response confirmation of uHTS hits for small molecule antagonists of the CRF-binding protein and CRF-R2 receptor complex.; assay type: functional; settings: read-out: IC50_Mean
Fatty acid synthase [13] = target: T4, Fatty acid synthase (Homo sapiens, UniProt P49327); experiment: FAS thioesterase domain inhibitors, dose response, biochemical, endpoint fluorescence intensity, uHTS hits (AID 624327); assay type: functional;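 further: fluorescence from hydrolysis of an O-methyl fluorescein acyl ester substrate by the enzyme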
Fatty acid synthase [14] = target: T4, Fatty acid synthase; experiment: FAS thioesterase domain inhibitors, dose response, biochemical, kinetic fluorescence intensity (AID 624326); assay type: functional;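 further: rate of fluorescence rise from hydrolysis of a fluorogenic O-methyl fluorescein ester substrate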
HEK293 = experiment: inhibitors of LMP1-driven NF-kB reporter, dose response, cell-based, HEK293, luciferase, cherry-pick (AID 588343); assay type: functional; settings: Homo sapiens
[15] = target: Glyceraldehyde-3-phosphate dehydrogenase (Homo sapiens, UniProt P04406)
Sequence of Glyceraldehyde-3-phosphate dehydrogenase (P04406 whole entry): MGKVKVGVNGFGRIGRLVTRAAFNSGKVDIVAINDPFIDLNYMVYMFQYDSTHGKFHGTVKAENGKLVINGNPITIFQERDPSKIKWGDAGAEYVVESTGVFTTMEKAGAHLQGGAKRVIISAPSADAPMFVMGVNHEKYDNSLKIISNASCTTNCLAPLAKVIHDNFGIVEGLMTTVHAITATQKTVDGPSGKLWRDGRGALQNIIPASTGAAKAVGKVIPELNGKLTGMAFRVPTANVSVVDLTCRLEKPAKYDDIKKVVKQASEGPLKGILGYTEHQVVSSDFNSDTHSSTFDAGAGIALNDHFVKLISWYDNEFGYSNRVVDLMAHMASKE

Sequence of Genome polyprotein (P29990 2492-3391 limits assumed): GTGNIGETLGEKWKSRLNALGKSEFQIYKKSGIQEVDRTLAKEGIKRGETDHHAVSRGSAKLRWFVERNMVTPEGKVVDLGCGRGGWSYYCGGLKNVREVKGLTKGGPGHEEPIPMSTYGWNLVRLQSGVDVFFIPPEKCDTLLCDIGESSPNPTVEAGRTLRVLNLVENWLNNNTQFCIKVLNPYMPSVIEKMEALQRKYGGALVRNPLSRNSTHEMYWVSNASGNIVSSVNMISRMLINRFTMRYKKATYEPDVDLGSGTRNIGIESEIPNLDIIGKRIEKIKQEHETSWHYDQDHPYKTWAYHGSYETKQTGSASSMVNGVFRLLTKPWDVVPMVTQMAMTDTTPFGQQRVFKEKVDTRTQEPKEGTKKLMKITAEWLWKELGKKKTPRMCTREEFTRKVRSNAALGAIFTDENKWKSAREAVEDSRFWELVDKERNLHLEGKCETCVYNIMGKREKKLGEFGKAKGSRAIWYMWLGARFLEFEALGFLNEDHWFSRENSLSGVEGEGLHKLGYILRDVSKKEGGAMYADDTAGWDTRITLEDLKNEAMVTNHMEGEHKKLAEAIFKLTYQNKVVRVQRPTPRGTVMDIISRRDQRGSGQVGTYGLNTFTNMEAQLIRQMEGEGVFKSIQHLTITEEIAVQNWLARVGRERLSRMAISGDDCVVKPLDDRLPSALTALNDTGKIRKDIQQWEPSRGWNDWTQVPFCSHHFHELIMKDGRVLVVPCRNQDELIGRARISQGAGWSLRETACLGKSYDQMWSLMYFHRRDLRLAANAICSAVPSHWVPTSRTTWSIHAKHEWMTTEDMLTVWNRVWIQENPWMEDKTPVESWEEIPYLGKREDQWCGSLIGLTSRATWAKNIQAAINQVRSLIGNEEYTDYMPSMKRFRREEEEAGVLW
T4 sequence (P49327 whole entry, the tested form may be a part): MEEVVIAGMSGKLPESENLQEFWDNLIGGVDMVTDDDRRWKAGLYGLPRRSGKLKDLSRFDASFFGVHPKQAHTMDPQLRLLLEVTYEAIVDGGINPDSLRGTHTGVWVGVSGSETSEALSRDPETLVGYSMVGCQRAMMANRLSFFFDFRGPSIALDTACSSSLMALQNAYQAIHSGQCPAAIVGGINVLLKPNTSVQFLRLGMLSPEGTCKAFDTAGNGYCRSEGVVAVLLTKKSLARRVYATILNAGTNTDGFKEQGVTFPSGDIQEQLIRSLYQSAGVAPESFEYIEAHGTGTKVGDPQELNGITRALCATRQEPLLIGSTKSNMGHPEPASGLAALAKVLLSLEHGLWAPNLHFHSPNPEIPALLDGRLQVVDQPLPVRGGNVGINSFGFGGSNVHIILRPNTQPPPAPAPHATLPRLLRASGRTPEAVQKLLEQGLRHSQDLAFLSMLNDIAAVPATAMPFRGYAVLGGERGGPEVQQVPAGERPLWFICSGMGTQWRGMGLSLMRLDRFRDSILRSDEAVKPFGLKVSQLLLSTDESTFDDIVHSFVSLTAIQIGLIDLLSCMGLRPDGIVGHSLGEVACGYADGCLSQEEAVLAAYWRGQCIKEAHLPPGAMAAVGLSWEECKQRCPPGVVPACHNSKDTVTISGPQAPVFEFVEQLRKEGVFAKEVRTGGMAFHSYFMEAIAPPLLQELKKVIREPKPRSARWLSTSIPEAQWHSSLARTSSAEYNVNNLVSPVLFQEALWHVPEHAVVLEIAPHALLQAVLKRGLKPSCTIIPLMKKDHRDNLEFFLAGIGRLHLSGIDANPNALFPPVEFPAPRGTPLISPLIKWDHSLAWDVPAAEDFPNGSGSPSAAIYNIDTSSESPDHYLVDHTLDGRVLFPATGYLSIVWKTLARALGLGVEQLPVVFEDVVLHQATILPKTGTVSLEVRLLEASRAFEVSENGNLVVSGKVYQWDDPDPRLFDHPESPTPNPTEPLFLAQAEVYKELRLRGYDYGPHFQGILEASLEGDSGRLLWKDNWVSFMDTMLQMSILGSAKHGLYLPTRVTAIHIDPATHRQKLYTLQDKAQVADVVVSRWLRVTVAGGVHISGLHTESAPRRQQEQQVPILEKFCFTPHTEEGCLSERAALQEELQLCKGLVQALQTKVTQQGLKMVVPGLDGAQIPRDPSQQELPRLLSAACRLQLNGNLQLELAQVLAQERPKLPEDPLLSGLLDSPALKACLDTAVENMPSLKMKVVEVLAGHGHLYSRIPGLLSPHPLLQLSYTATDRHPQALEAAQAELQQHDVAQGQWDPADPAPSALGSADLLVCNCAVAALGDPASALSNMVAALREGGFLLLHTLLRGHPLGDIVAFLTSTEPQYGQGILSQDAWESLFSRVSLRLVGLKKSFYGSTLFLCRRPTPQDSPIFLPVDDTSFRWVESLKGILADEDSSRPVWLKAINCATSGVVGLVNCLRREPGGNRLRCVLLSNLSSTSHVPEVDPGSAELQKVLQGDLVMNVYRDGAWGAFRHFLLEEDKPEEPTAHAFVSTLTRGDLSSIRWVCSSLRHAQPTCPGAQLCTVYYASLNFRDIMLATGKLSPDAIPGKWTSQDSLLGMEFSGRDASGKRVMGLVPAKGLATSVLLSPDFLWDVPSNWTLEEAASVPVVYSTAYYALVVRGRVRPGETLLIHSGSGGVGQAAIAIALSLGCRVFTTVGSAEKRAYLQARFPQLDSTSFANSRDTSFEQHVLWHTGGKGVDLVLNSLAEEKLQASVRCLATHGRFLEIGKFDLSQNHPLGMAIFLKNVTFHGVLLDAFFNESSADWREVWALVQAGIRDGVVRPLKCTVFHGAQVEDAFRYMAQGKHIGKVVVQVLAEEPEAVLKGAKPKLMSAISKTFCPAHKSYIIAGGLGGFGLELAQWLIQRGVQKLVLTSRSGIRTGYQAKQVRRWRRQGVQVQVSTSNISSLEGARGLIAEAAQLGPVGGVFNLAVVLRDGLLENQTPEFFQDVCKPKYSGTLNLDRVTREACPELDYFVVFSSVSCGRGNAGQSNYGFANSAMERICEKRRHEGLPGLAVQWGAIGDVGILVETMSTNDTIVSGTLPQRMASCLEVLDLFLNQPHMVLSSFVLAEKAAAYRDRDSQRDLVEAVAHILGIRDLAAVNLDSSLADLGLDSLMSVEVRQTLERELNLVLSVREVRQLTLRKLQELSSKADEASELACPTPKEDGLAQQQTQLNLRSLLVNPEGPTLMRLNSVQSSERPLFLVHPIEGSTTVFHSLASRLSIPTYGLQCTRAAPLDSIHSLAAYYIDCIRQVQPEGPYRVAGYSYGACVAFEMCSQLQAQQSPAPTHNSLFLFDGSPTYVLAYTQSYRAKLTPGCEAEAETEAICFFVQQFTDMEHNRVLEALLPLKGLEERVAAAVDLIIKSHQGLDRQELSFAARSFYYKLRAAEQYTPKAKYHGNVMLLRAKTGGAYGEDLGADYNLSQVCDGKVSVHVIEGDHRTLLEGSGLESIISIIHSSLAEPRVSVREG

Question: For Cc1ccn2cc(CCNC(=O)C3CC=CCC3C(=O)O)nc2c1 (stereo not given), which EC50 [1] is on record?
Answer: 3.76 µM (active)

Question: With Oc1ccc(Nc2nc3ccccc3nc2Nc2ccc(O)cc2)cc1 as the molecule, how does the EC50 [2] read?
Answer: 1.25 µM (active)

Question: And the EC50 [3]?
Answer: 4.43 µM (active)

Question: What about the IC50 [4] of the same molecule?
Answer: 67.3 µM (inactive)

Question: And the EC50 [5]?
Answer: > 30 µM (not active)

Question: And the EC50 [6]?
Answer: 117 µM (active)

Question: And the EC50 [7]?
Answer: 1.19 µM (active)

Question: What about the EC50 [8] of the same molecule?
Answer: 21.4 µM (active)

Question: What about the EC50 [9] of the same molecule?
Answer: > 120 µM (not active)

Question: And the EC50 [10]?
Answer: > 195 µM (not active)

Question: With O=C(O)c1cc([N+](=O)[O-])c(Sc2nc3ccccc3[nH]2)c([N+](=O)[O-])c1 as the molecule, how does the IC50 (Genome polyprotein) read?
Answer: > 100 µM (active)

Question: For COC(=O)CSC1=NS(=O)(=O)c2ccccc21, which EC50 [11] is on record?
Answer: > 53 µM (inactive)

Question: What about the IC50 [12] of the same molecule?
Answer: > 47.1 µM (inactive)

Question: What about the IC50 (Genome polyprotein) of the same molecule?
Answer: 23.2 µM (active)

Question: What does the source list for CCCn1c(SCC(=O)Nc2ccccc2-c2ccccc2)nnc1-c1ccoc1C?
Answer: IC50 (Fatty acid synthase [13]): 8.34 µM (active); IC50 (Fatty acid synthase [14]): 7.42 µM (active)

Question: For COc1cccc(C(=O)NC2CCCN(C3Cc4ccccc4C3)C2)c1OC (stereo not given), which EC50 [1] is on record?
Answer: 5.31 µM (active)

Question: For Cc1sc2ncnc(N3CCC(C(=O)Nc4ccccc4C(C)(C)C)CC3)c2c1C, which AC50 (HEK293) is on record?
Answer: 16.8 µM (active)

Question: With COc1ccccc1N1C(=O)NC(=O)/C(=C\c2cnn(-c3ccccc3)c2)C1=O as the molecule, how does the IC50 (Genome polyprotein) read?
Answer: > 100 µM (active)

Question: With COc1cccc(N2CCN(C3=C(Cl)C(=O)N(c4ccc(C)cc4)C3=O)CC2)c1 as the molecule, how does the IC50 [15] read?
Answer: > 50 µM (inconclusive)

From ChEMBL document CHEMBL1201862, “PubChem BioAssay data set” (2004)
